# Source: paper PMC3937722, “Biochemical studies on a versatile esterase that is most catalytically active with polyaromatic esters” (Microbial Biotechnology, 2014)
# Experiments:
# CN1E1 [1] = test system: T1, CN1E1; experiment: ester hydrolysis kinetics; format: biochemical, uncultured bacterium; conditions: 5 mM EPPS pH 8.0, 40°C
# T1 construct: catalytic triad Ser155, Asp250, His280
# Description: ester hydrolysis kinetics on CN1E1
# CN1E1 [2] = test system: T1, CN1E1; experiment: ester hydrolysis kinetics, p-nitrophenol release; format: biochemical, uncultured bacterium; conditions: pH 7.0 (b12; table heading says pH 8.0), 40°C
# Description: ester hydrolysis kinetics, p-nitrophenol release on CN1E1
Molecule,Km (CN1E1 [1]) [mM],Km (CN1E1 [2]) [µM]
COC(=O)c1ccc2ccc3ccccc3c2c1 [Methyl phenanthrene-3-carboxylate],1.6 ± 0.09,–
"COC(=O)/C=C/c1cc(O)ccc1O [2,5-Dihydroxycinnamic acid methyl ester]",1.06 ± 0.06,–
COC(=O)c1ccccc1C(=O)OC [Dimethyl phthalate],1.59 ± 0.1,–
COC(=O)CBr [Methyl bromoacetate],1.7 ± 0.09,–
COC(=O)c1cc2ccccc2c2ccccc12 [Methyl phenanthrene-9-carboxylate],0.53 ± 0.03,–
CCCCOC(C)=O [Butyl acetate],2.1 ± 0.17,–

# Continued, values first:
Km (CN1E1 [1]) [mM],Km (CN1E1 [2]) [µM],Molecule
0.64 ± 0.06,–,"O=Cc1ccc(C(=O)OCc2ccccc2)cc1 [Benzoic acid, 4-formyl-, phenylmethyl ester]"
0.94 ± 0.05,–,CC(=O)Oc1ccccc1 [Phenyl acetate]
1.14 ± 0.06,–,CCOC(=O)c1ccc(O)c(O)c1 [Protocatechuic acid ethyl ester]
–,190 ± 10,CC(=O)Oc1ccc([N+](=O)[O-])cc1 [pNP-acetate]
1.08 ± 0.05,–,CC(=O)OC[C@H]1OC=C[C@@H](OC(C)=O)[C@@H]1OC(C)=O [Tri-O-acetyl-D-glucal]
1.64 ± 0.08,–,CC(=O)OCC(COC(C)=O)OC(C)=O [Triacetin]
1.47 ± 0.05,–,COC(=O)c1ccc2cc3ccccc3cc2c1 [Anthracene-2-carboxylic acid methyl ester]
0.71 ± 0.06,–,Naphthalene carboxylic acid methyl ester
